Where two headings read alike, the source gives them in different places.
Tests used:
[1] = target: T1, isolated recombinant JAK1 kinase domain (Homo sapiens, UniProt P23458); test: JAK enzyme assay, JAK1 kinase domain (Caliper LabChip); format: biochemical; settings: 1.5 nM JAK1, ATP 25 μM, Morrison tight binding model
T1 construct: isolated recombinant JAK1 and JAK2 kinase domain
Protocol: (§1) JAK Enzyme Assays were Carried Out as Follows:
(§2) The activity of the isolated recombinant JAK1 and JAK2 kinase domain was measured by monitoring phosphorylation of a peptide derived from JAK3 ([…] fluorescently labeled on the N-terminus with 5-carboxyfluorescein) using the Caliper LabChip® technology (Caliper Life Sciences, Hopkinton, Mass.). To determine inhibition constants (K), compounds were diluted serially in DMSO and added to 50 μL kinase reactions containing purified enzyme (1.5 nM JAK1, or 0.2 nM JAK2), 100 mM HEPES buffer (pH 7.2), 0.015% Brij-35, 1.5 μM peptide substrate, ATP (25 μM), 10 mM MgCl2, 4 mM DTT at a final DMSO concentration of 2%.
(§3) Reactions were incubated at 22° C. in 384-well polypropylene microtiter plates for 30 minutes and then stopped by addition of 25 µL of an EDTA containing solution (100 mM HEPES buffer (pH 7.2), 0.015% Brij-35, 150 mM EDTA), resulting in a final EDTA concentration of 50 mM. After termination of the kinase reaction, the proportion of phosphorylated product was determined as a fraction of total peptide substrate using the Caliper LabChip® 3000 according to the manufacturer's specifications. K values were then determined using the Morrison tight binding model (Morrison, J. F., Biochim. Biophys. Acta. 185:269-296 (1969); William, J. W. and Morrison, J. F., Meth. Enzymol., 63:437-467 (1979)) modified for ATP-competitive inhibition [Ki=Ki, app/(1+[ATP]/Km,app)].

[2] = test system: JAK1-dependent STAT6 phosphorylation downstream of IL-13 stimulation, BEAS-2B human bronchial epithelial cells; test: JAK1 pathway assay in cell lines: IL-13 stimulated STAT6 phosphorylation in BEAS-2B cells (MSD); format: cell-based; settings: IL-13 stimulation 15 min at EC90, read-out: IL-13 p-STAT6 BEAS-2B IC50
Protocol: JAK1 Pathway Assay in Cell Lines was Carried Out as Follows:
Inhibitor potency (EC50) was determined in cell-based assays designed to measure JAK1 dependent STAT phosphorylation. As noted above, inhibition of IL-4, IL-13, and IL-9 signaling by blocking the Jak/Stat signaling pathway can alleviate asthmatic symptoms in pre-clinical lung inflammation models (Mathew et al., 2001, J Exp Med 193(9): 1087-1096; Kudlacz et. al., 2008, Eur J. Pharmacol 582(1-3): 154-161).
In one assay approach, TF-1 human erythroleukemia cells obtained from the American Type Culture Collection (ATCC; Manassas, Va.) were used to measure JAK1-dependent STAT6 phosphorylation downstream of IL-13 stimulation. Prior to use in the assays, TF-1 cells were starved of GM-CSF overnight in OptiMEM medium (Life Technologies, Grand Island, N.Y.) supplemented with 0.5% charcoal/dextran stripped fetal bovine serum (FBS), 0.1 mM non-essential amino acids (NEAA), and 1 mM sodium pyruvate. The assays were run in 384-well plates in serum-free OptiMEM medium using 300,000 cells per well. In a second assay approach, BEAS-2B human bronchial epithelial cells obtained from ATCC were plated at 100,000 cells per well of a 96-well plate one day prior to the experiment. The BEAS-2B assay was run in complete growth medium (bronchial epithelial basal medium plus bulletkit; Lonza; Basel, Switzerland).
Test compounds were serially diluted 1:2 in DMSO and then diluted 1:50 in medium just before use. Diluted compounds were added to the cells, for a final DMSO concentration of […], and incubated for 30 m (for the TF-1 assay) or […] (for the BEAS-2B assay) at 37° C. Then, cells were stimulated with human recombinant cytokine at their respective EC90 concentrations, as previously determined for each individual lot. Cells were stimulated with IL-13 (R&D Systems, Minneapolis, Minn.) for 15 min at 37° C. The TF-1 cell reactions were stopped by the direct addition of 10× lysis buffer (Cell Signaling Technologies, Danvers, Mass.), whereas the BEAS-2B cell incubations were halted by the removal of medium and addition of 1× lysis buffer. The resultant samples were frozen in the plates at −80° C. Compound mediated inhibition of STAT6 phosphorylation was measured in the cell lysates using MesoScale Discovery (MSD) technology (Gaithersburg, Md.).

[3] = target: T2, isolated recombinant JAK2 kinase domain (Homo sapiens, UniProt O60674); test: JAK enzyme assay, JAK2 kinase domain (Caliper LabChip); format: biochemical; settings: 0.2 nM JAK2, ATP 25 μM, Morrison tight binding model
T2 construct: isolated recombinant JAK1 and JAK2 kinase domain
T2 sequence (O60674 849-1124 limits assumed): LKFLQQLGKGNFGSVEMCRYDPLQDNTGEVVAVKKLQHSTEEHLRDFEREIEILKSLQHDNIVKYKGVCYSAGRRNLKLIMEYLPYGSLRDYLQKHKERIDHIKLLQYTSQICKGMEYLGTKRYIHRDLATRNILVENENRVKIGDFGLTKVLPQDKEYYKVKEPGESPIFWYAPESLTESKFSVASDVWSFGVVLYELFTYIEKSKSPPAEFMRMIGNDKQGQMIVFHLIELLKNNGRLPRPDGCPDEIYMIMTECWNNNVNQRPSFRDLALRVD
Protocol: as §1, §2, §3

T1 sequence (P23458 875-1153 limits assumed): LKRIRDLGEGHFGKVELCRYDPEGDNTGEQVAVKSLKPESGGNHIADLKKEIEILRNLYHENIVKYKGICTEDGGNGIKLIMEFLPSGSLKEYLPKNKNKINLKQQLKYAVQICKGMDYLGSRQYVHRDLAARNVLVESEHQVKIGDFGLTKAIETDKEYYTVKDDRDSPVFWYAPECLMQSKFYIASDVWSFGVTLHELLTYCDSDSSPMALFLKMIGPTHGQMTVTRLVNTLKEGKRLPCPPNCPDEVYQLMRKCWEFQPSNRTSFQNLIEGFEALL

Row | SMILES | Ki [1] | Ki [3] | IC50 ([2]; Homo sapiens, BEAS-2B, […]) | IC50 [2]
1 | CN1CCN(C(=O)CN2CCC(n3cc(NC(=O)c4cnn5cccnc45)c(-c4cc(Cl)ccc4OC(F)F)n3)C2=O)CC1 (single isomer, unassigned) [Example 16, N-[3-[5-chloro-2-(difluoromethoxy)phenyl]-1-[1-[2-(4-methylpiperazin-1-yl)-2-oxo-ethyl]-2-oxo-pyrrolidin-3-yl]pyrazol-4-yl]pyrazolo[1,5-a]pyrimidine-3-carboxamide] | 2.8 nM | 0.68 nM | 200 nM | –
2 | O=C(Nc1cn(C2CCCCC2=O)nc1-c1cc(Cl)ccc1OC(F)F)c1cnn2cccnc12 (racemic) [Example 1, N-[3-[5-chloro-2-(difluoromethoxy)phenyl]-1-(2-oxocyclohexyl)pyrazol-4-yl] pyrazolo [1,5-a] pyrimidine-3-carboxamide] | 1.1 nM | 1.4 nM | 33 nM | –
3 | CN1CCC(n2cc(NC(=O)c3cnn4cccnc34)c(-c3cc(Cl)c(C#N)cc3OC(F)F)n2)C1=O (racemic) [Example 22, N-[3-[5-chloro-4-cyano-2-(difluoromethoxy)phenyl]-1-(1-methyl-2-oxo-pyrrolidin-3-yl)pyrazol-4-yl]pyrazolo[1,5-a]pyrimidine-3-carboxamide] | 2.5 nM | 4 nM | 98 nM | –
4 | O=C(Nc1cn(C2CCN(C3COC3)C2=O)nc1-c1cc(Cl)ccc1OC(F)F)c1cnn2cccnc12 (single isomer, unassigned) [Example 23, N-[3-[5-chloro-2-(difluoromethoxy)phenyl]-1-[1-(oxetan-3-yl)-2-oxo-pyrrolidin-3-yl]pyrazol-4-yl]pyrazolo[1,5-a]pyrimidine-3-carboxamide] | 0.51 nM | 0.54 nM | – | 23 nM

More lines, main results first:

Row | Ki [1] | Ki [3] | SMILES | IC50 ([2]; Homo sapiens, BEAS-2B, […]) | IC50 [2]
5 | 2.5 nM | 0.81 nM | CN1CC[C@@H](n2cc(NC(=O)c3cnn4cccnc34)c(-c3cc(Cl)ccc3OC(F)F)n2)C1=O (stereo in doubt) [Example 3, N-[3-[5-chloro-2-(difluoromethoxy)phenyl]-1-[rac-(3R)-1-methyl-2-oxo-pyrrolidin-3-yl]pyrazol-4-yl]pyrazolo[1,5-a]pyrimidine-3-carboxamide] | 50 nM | –
6 | 0.17 nM | 0.11 nM | O=C(Nc1cn(C2CCOC2=O)nc1-c1cc(SC(F)F)ccc1OC(F)F)c1cnn2cccnc12 (single isomer, unassigned) [Example 32, N-[3-[2-(difluoromethoxy)-5-(difluoromethyl-sulfanyl)phenyl]-1-(2-oxotetrahydrofuran-3-yl)pyrazol-4-yl]pyrazolo[1,5-a]pyrimidine-3-carboxamide] | – | 6.6 nM
7 | 0.3 nM | 0.84 nM | CN1CCC(n2cc(NC(=O)c3cnn4cccnc34)c(-c3cc(OC(F)F)ccc3OC(F)F)n2)C1=O (single isomer, unassigned) [Example 8, N-[3-[2,5-bis(difluoromethoxy)phenyl]-1-(1-methyl-2-oxo-pyrrolidin-3-yl)pyrazol-4-yl]pyrazolo[1,5-a]pyrimidine-3-carboxamide] | – | 20 nM
8 | 0.26 nM | 0.18 nM | O=C(Nc1cn(C2CCOC2=O)nc1-c1cc(OC(F)F)ccc1OC(F)F)c1cnn2cccnc12 (single isomer, unassigned) [Example 37, N-[3-[2,5-bis(difluoromethoxy)phenyl]-1-(2-oxotetrahydrofuran-3-yl)pyrazol-4-yl]pyrazolo[1,5-a]pyrimidine-3-carboxamide] | – | 14 nM
9 | 0.15 nM | 0.096 nM | CSc1ccc(OC(F)F)c(-c2nn(C3CCOC3=O)cc2NC(=O)c2cnn3cccnc23)c1 (single isomer, unassigned) [Example 30, N-[3-[2-(difluoromethoxy)-5-methylsulfanyl-phenyl]-1-(2-oxotetrahydrofuran-3-yl)pyrazol-4-yl]pyrazolo[1,5-a]pyrimidine-3-carboxamide] | – | 11 nM

Source: patent US20200339604A1, “PYRAZOLOPYRIMIDINE COMPOUNDS AS JAK INHIBITORS” (Genentech, Inc., priority 2018, published 2020)
